The record followed here is patent US20250152751A1, “RED-SHIFTED FLUOROPHORES AND METHODS OF USING THE SAME” (GEORGIA STATE UNIVERSITY RESEARCH FOUNDATION, INC., priority 2022, published 2025).

A short description of the data set: Optical properties of the fluorophores measured in ethanol, compared to ICG. It is filed as physicochemical. Conditions: for Φ^a (%): compared to ICG. Put shortly:
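Values cover absorption and emission maxima, Stokes shift, quantum yield and molar extinction coefficient. All were obtained for each fluorophore in ethanol, with a reference dye measured for comparison.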

Structures are written as SMILES.

As to `CCN1C(=CC=C2CC(C(C)(C)C)CC(C=C(C#N)C(=O)O)=C2Cl)C(C)(C)c2cc(F)ccc21` (centres unmarked) [Compound 59], the “Stokes Shift (nm)” value is recorded as 19 nm, the “λabs (nm)” value came to 780 nm, the “λem (nm)” value is 799 nm and the “ϵ (cm^−1 M^−1)” value is reported as 123,000 cm^−1 M^−1. Besides, the “Φ^a (%)” value came to 12.5%.

In the case of `CCN1C(=CC=C2CC(C(C)(C)C)CC(C=C(C#N)C(=O)O)=C2N2CCC(CO)CC2)C(C)(C)c2cc(Cl)ccc21` (centres unmarked) [Compound 85], the “Stokes Shift (nm)” value stood at 143 nm, the “λabs (nm)” value worked out at 645 nm, the “λem (nm)” value is 788 nm and the “ϵ (cm^−1 M^−1)” value is recorded as 60,000 cm^−1 M^−1. Moreover, the “Φ^a (%)” value is 19.9%.

As for `CCCCN1/C(=C/C=C2\CCCC(/C=C(\C#N)C(=O)O)=C2Cl)C(C)(C)c2c1ccc1ccccc21` [Compound 56], the “Stokes Shift (nm)” value is 7 nm, the “λabs (nm)” value worked out at 820 nm, the “λem (nm)” value came to 827 nm and the “ϵ (cm^−1 M^−1)” value is 151,100 cm^−1 M^−1. Also, the “Φ^a (%)” value amounted to 9.6%.

Turning to `CCN1C(=CC=C2CC(C(C)(C)C)CC(C=C(C#N)C(=O)O)=C2Cl)C(C)(C)c2ccccc21` (centres unmarked) [Compound 58], the “Stokes Shift (nm)” value amounted to 17 nm, the “λabs (nm)” value amounted to 780 nm, the “λem (nm)” value came out at 797 nm and the “ϵ (cm^−1 M^−1)” value is given as 138,200 cm^−1 M^−1. The “Φ^a (%)” value is 12.7%.

As to `CCN1C(=CC=C2CCCC(C=C(C#N)C#N)=C2Cl)C(C)(C)c2cc(Cl)ccc21` [Compound 75], the “Stokes Shift (nm)” value is given as 15 nm, the “λabs (nm)” value is given as 790 nm, the “λem (nm)” value stood at 805 nm and the “ϵ (cm^−1 M^−1)” value is given as 145,400 cm^−1 M^−1. The “Φ^a (%)” value amounted to 11.5%.

Turning to `CCCCN1C(=CC=C2CCCC(C=C(C#N)C(=O)O)=C2Cl)C(C)(C)c2cc(Cl)ccc21` [Compound 55], the “Stokes Shift (nm)” value was 13 nm, the “λabs (nm)” value is 795 nm, the “λem (nm)” value is 808 nm and the “ϵ (cm^−1 M^−1)” value is given as 115,500 cm^−1 M^−1. For the same compound, the “Φ^a (%)” value amounted to 11.5%.

Consider `CCN1C(=CC=C2CCCC(C=C(C#N)C(=O)O)=C2Cl)C(C)(C)c2ccccc21` [Compound 47], for which the “Stokes Shift (nm)” value was determined as 20 nm, the “λabs (nm)” value worked out at 780 nm, the “λem (nm)” value was determined as 800 nm and the “ϵ (cm^−1 M^−1)” value was 179,500 cm^−1 M^−1. Besides, the “Φ^a (%)” value was 12.3%.

In the case of `CCN1C(=CC=C2CCCC(C=C(C#N)C#N)=C2Cl)C(C)(C)c2ccccc21` [Compound 71], the “Stokes Shift (nm)” value is listed as 17 nm, the “λabs (nm)” value was found to be 780 nm, the “λem (nm)” value was determined as 797 nm and the “ϵ (cm^−1 M^−1)” value is 144,100 cm^−1 M^−1. The “Φ^a (%)” value came out at 12.1%.

For the compound `CN1C(=CC=C2CCCC(C=C(C#N)C(=O)O)=C2Cl)C(C)(C)c2cc(F)ccc21` [Compound 49], the “Stokes Shift (nm)” value is reported as 15 nm, the “λabs (nm)” value stood at 780 nm, the “λem (nm)” value is 795 nm and the “ϵ (cm^−1 M^−1)” value is listed as 195,100 cm^−1 M^−1. Moreover, the “Φ^a (%)” value is 12.6%.

Turning to `CCCCN1C(=CC=C2CCCC(C=C(C#N)C(=O)O)=C2Cl)C(C)(C)c2ccccc21` [Compound 48], the “Stokes Shift (nm)” value worked out at 17 nm, the “λabs (nm)” value is given as 785 nm, the “λem (nm)” value is 802 nm and the “ϵ (cm^−1 M^−1)” value is given as 181,400 cm^−1 M^−1. In addition, the “Φ^a (%)” value was 12.1%.

For `CN1C(=CC=C2CCCC(C=C(C#N)C(=O)O)=C2Cl)C(C)(C)c2cc(Br)ccc21` [Compound 52], the “Stokes Shift (nm)” value was determined as 16 nm, the “λabs (nm)” value worked out at 790 nm, the “λem (nm)” value was 806 nm and the “ϵ (cm^−1 M^−1)” value is 153,600 cm^−1 M^−1. Also, the “Φ^a (%)” value came to 11.8%.

Regarding `CCCCN1C(=CC=C2CCCC(C=C(C#N)C(=O)O)=C2Cl)C(C)(C)c2cc(F)ccc21` [Compound 51], the “Stokes Shift (nm)” value worked out at 17 nm, the “λabs (nm)” value is 785 nm, the “λem (nm)” value turned out to be 802 nm and the “ϵ (cm^−1 M^−1)” value is recorded as 176,400 cm^−1 M^−1. The “Φ^a (%)” value worked out at 11.9%.

With `CCN1C(=CC=C2CCCC(C=C(C#N)C(=O)O)=C2Cl)C(C)(C)c2cc(F)ccc21` [Compound 50], the “Stokes Shift (nm)” value turned out to be 14 nm, the “λabs (nm)” value was found to be 780 nm, the “λem (nm)” value stood at 799 nm and the “ϵ (cm^−1 M^−1)” value is recorded as 165,300 cm^−1 M^−1. Moreover, the “Φ^a (%)” value came to 12.2%.

For `CCN1C(=CC=C2CC(c3ccccc3)CC(C=C(C#N)C(=O)O)=C2Cl)C(C)(C)c2cc(Cl)ccc21` (centres unmarked) [Compound 69], the “Stokes Shift (nm)” value was determined as 11 nm, the “λabs (nm)” value stood at 790 nm, the “λem (nm)” value was determined as 801 nm and the “ϵ (cm^−1 M^−1)” value is listed as 136,500 cm^−1 M^−1. For the same compound, the “Φ^a (%)” value worked out at 11.7%.

For the compound `CCCCN1C(=CC=C2CCCC(C=C(C#N)C#N)=C2Cl)C(C)(C)c2ccccc21` [Compound 72], the “Stokes Shift (nm)” value is 15 nm, the “λabs (nm)” value turned out to be 785 nm, the “λem (nm)” value was 800 nm and the “ϵ (cm^−1 M^−1)” value is recorded as 143,900 cm^−1 M^−1. In addition, the “Φ^a (%)” value amounted to 12.1%.

As for `CCN1C(=CC=C2CC(c3ccccc3)CC(C=C(C#N)C(=O)O)=C2Cl)C(C)(C)c2cc(Br)ccc21` (centres unmarked) [Compound 68], the “Stokes Shift (nm)” value was determined as 15 nm, the “λabs (nm)” value worked out at 790 nm, the “λem (nm)” value was 805 nm and the “ϵ (cm^−1 M^−1)” value was 167,800 cm^−1 M^−1. Also, the “Φ^a (%)” value amounted to 12.1%.

Take `CCN1C(=CC=C2CC(c3ccccc3)CC(C=C(C#N)C(=O)O)=C2Cl)C(C)(C)c2ccccc21` (centres unmarked) [Compound 66]: the “Stokes Shift (nm)” value is 15 nm, the “λabs (nm)” value is given as 780 nm, the “λem (nm)” value is recorded as 795 nm and the “ϵ (cm^−1 M^−1)” value is reported as 155,700 cm^−1 M^−1. In addition, the “Φ^a (%)” value is 12.4%.

Take `CN1C(=CC=C2CC(C(C)(C)C)CC(C=C(C#N)C(=O)O)=C2Cl)C(C)(C)c2c1ccc1ccccc21` (centres unmarked) [Compound 63]: the “Stokes Shift (nm)” value worked out at 6 nm, the “λabs (nm)” value was 815 nm, the “λem (nm)” value was determined as 821 nm and the “ϵ (cm^−1 M^−1)” value is on record as 167,100 cm^−1 M^−1. Further, the “Φ^a (%)” value is given as 9.8%.

With `CCN1C(=CC=C2CCCC(C=C(C#N)C(=O)O)=C2N2CCC(CO)CC2)C(C)(C)c2cc(Cl)ccc21` [Compound 83], the “Stokes Shift (nm)” value was found to be 122 nm, the “λabs (nm)” value came out at 670 nm, the “λem (nm)” value was determined as 792 nm and the “ϵ (cm^−1 M^−1)” value is recorded as 75,300 cm^−1 M^−1. Further, the “Φ^a (%)” value is on record as 17.4%.

For `CCN1C(=CC=C2CCCC(C=C(C#N)C(=O)O)=C2Cl)C(C)(C)c2cc(Cl)ccc21` [Compound 54], the “Stokes Shift (nm)” value was 15 nm, the “λabs (nm)” value is given as 790 nm, the “λem (nm)” value was 805 nm and the “ϵ (cm^−1 M^−1)” value is recorded as 156,500 cm^−1 M^−1. The “Φ^a (%)” value was determined as 12.0%.

In the case of `CCN1C(=CC=C2CCCC(C=C(C#N)C(=O)O)=C2Cl)C(C)(C)c2cc(Br)ccc21` [Compound 53], the “Stokes Shift (nm)” value is 17 nm, the “λabs (nm)” value is given as 790 nm, the “λem (nm)” value is on record as 807 nm and the “ϵ (cm^−1 M^−1)” value is 171,000 cm^−1 M^−1. Further, the “Φ^a (%)” value stood at 11.8%.

As to `CCN1C(=CC=C2CC(C(C)(C)C)CC(C=C(C#N)C(=O)O)=C2Cl)C(C)(C)c2cc(Br)ccc21` (centres unmarked) [Compound 61], the “Stokes Shift (nm)” value amounted to 15 nm, the “λabs (nm)” value turned out to be 790 nm, the “λem (nm)” value worked out at 805 nm and the “ϵ (cm^−1 M^−1)” value was 123,500 cm^−1 M^−1. Further, the “Φ^a (%)” value is recorded as 11.4%.

As for `CCN1C(=CC=C2CC(C(C)(C)C)CC(C=C(C#N)C(=O)O)=C2Cl)C(C)(C)c2cc(Cl)ccc21` (centres unmarked) [Compound 62], the “Stokes Shift (nm)” value turned out to be 15 nm, the “λabs (nm)” value is 790 nm, the “λem (nm)” value stood at 805 nm and the “ϵ (cm^−1 M^−1)” value is 114,100 cm^−1 M^−1. The “Φ^a (%)” value amounted to 11.5%.

For `CCCCN1C(=CC=C2CC(C(C)(C)C)CC(C=C(C#N)C(=O)O)=C2Cl)C(C)(C)c2cc(F)ccc21` (centres unmarked) [Compound 60], the “Stokes Shift (nm)” value was 18 nm, the “λabs (nm)” value is reported as 785 nm, the “λem (nm)” value came out at 803 nm and the “ϵ (cm^−1 M^−1)” value is given as 137,400 cm^−1 M^−1. The “Φ^a (%)” value is reported as 12.6%.

`CCN1C(=CC=C2CC(c3ccccc3)CC(C=C(C#N)C(=O)O)=C2Cl)C(C)(C)c2cc(F)ccc21` (centres unmarked) [Compound 67]: the “Stokes Shift (nm)” value came to 16 nm, the “λabs (nm)” value is recorded as 780 nm, the “λem (nm)” value was found to be 796 nm and the “ϵ (cm^−1 M^−1)” value is listed as 124,700 cm^−1 M^−1. For the same compound, the “Φ^a (%)” value came out at 12.3%.

On to `CN1C(=CC=C2CCCC(C=C(C#N)C(=O)O)=C2N2CCC(CO)CC2)C(C)(C)c2cc(Br)ccc21` [Compound 81], for which the “Stokes Shift (nm)” value is reported as 126 nm, the “λabs (nm)” value worked out at 665 nm, the “λem (nm)” value came out at 791 nm and the “ϵ (cm^−1 M^−1)” value is given as 64,200 cm^−1 M^−1. Moreover, the “Φ^a (%)” value was 18.3%.

Take `CCCCN1C(=CC=C2CCCC(C=C(C#N)C#N)=C2Cl)C(C)(C)c2cc(F)ccc21` [Compound 73]: the “Stokes Shift (nm)” value turned out to be 17 nm, the “λabs (nm)” value is listed as 785 nm, the “λem (nm)” value amounted to 802 nm and the “ϵ (cm^−1 M^−1)” value is reported as 168,800 cm^−1 M^−1. Besides, the “Φ^a (%)” value came to 12.2%.

Turning to `CCCCN1/C(=C/C=C2\CCCC(/C=C(\C#N)C(=O)O)=C2Cl)Sc2ccccc21` [Compound 57], the “Stokes Shift (nm)” value stood at 14 nm, the “λabs (nm)” value is recorded as 800 nm, the “λem (nm)” value was found to be 814 nm and the “ϵ (cm^−1 M^−1)” value is listed as 198,700 cm^−1 M^−1. Besides, the “Φ^a (%)” value is listed as 10.5%.
